Patent publication US8012987B2, “Indolo[2,1-b] quinazole-6,12-dione antimalarial compounds and methods of treating malaria therewith” (The United States of America as represented by the …, priority 1998, dated 2011)
Values after ≈ are worked out from the molar mass of the structure shown. Values joined by “and” are separate entries in the source; they are usually repeats but may differ in a detail not shown here. Equal entries are not always repeated. Where two headings read alike, the source gives them in different places.

Key:
Type in all cases: cell-based
[1] = test system: Plasmodium falciparum clone Thai TM90C2B; test: In vitro inhibition of [3H]hypoxanthine uptake, P. falciparum TM90C2B; settings: values without parentheses: blood serum (footnote: blood plasma) replacing Albumax; for IC50: Plasmodium falciparum, TM90C2B
Procedure: (§1) The in vitro assays were conducted by using a modification of the semiautomated microdilution technique of Desjardins et al.^11 and Chulay et al.^12 Two strains of Plasmodium falciparum clones, from CDC Indochina III (W-2), CDC Sierra Leone I (D-6). […] They were derived by direct visualization and micromanipulation from patient isolates.^13 Test compounds were initially dissolved in DMSO and diluted 400-fold in RPMI 1640 culture medium supplemented with 25 mM Hepes, 32 mM HaHCO3, and 10% Albumax I® (GIBCO BRL, Grand Island, N.Y.). These solutions were subsequently serially diluted 2-fold with a Biomek 1000® (Beckman, Fullerton, Calif.) over 11 different concentrations. The parasites were exposed to serial dilutions of each compound for 48 h and incubated at 37° C. with 5% O2, 5% CO2, and 90% N2 prior to the addition of [^3H]hypoxanthine. After a further incubation of 18 h, parasite DNA was harvested from each microtiter well using Packard Filtermate 196 Harvester® (Meriden, Conn.) onto glass filters. Uptake of [^3H]hypoxanthine was measured with a Packard Topcount scintillation counter. […] This procedure was repeated with the test compounds initially dissolved in DMSO and diluted 400-fold in RPMI 1640 culture medium supplemented with 25 mM Hepes, 32 mM HaHCO3, and with blood serum replacing the 10% Albumax I® (see Table 1, figures without parentheses). The values without parentheses indicate culture in blood serum which more closely resemble conditions in a living animal.
(§2) Four strains of Plasmodium falciparum clones, from CDC Indochina III (W-2), CDC Sierra Leone I (D-6), Thai WR75-TM9, and Thai TM90C2B were utilized in susceptibility testing and the IC50 results appear in Table 1.

[2] = test system: Plasmodium falciparum clone CDC Indochina III (W-2); test: In vitro inhibition of [3H]hypoxanthine uptake, P. falciparum W-2 clone; settings: for IC50: Plasmodium falciparum, read-out: IC50 (W-2)
Procedure: (§3) The in vitro assays were conducted by using a modification of the semiautomated microdilution technique of Desjardins et al.^11 and Chulay et al.^12 Two strains of Plasmodium falciparum clones, from CDC Indochina III (W-2), CDC Sierra Leone I (D-6). […] These solutions were subsequently serially diluted 2-fold with a Biomek 1000® (Beckman, Fullerton, Calif.) over 11 different concentrations. The parasites were exposed to serial dilutions of each compound for 48 h and incubated at 37° C. with 5% O2, 5% CO2, and 90% N2 prior to the addition of [^3H]hypoxanthine. […] Uptake of [^3H]hypoxanthine was measured with a Packard Topcount scintillation counter. […] The values without parentheses indicate culture in blood serum which more closely resemble conditions in a living animal.
(§4) The numbers associated with both W2 and D6 refer to IC50 values and the units are ng/ml.

[3] = test system: Plasmodium falciparum clone CDC Sierra Leone I (D-6); test: In vitro inhibition of [3H]hypoxanthine uptake, P. falciparum D-6 clone; settings: for IC50: Plasmodium falciparum, read-out: IC50 (D-6)
Procedure: as §3, §4

[4] = test system: Plasmodium falciparum clone Thai WR75-TM9; test: In vitro inhibition of [3H]hypoxanthine uptake, P. falciparum WR75-TM9; settings: values without parentheses: blood serum (footnote: blood plasma) replacing Albumax; for IC50: Plasmodium falciparum
Procedure: as §1, §2

Plasmodium falciparum = test: In vitro antimalarial activity against Plasmodium falciparum (strain not given); settings: judged from the IC50 values of Table 1
Procedure: as §1, §2

[5] = values in parentheses: culture medium with 10% Albumax I
[6] = values without parentheses: blood serum (footnote: blood plasma) replacing Albumax

O=C1c2cc(OC(F)(F)F)ccc2-n2c1nc1cc(SCCO)ccc1c2=O [Example 87]
IC50 [1]: 0.696 ng/mL (≈ 0.0017 µM)
IC50 [2, 5]: 3.51 ng/mL (≈ 0.0086 µM)
IC50 [3, 5]: 4.92 ng/mL (≈ 0.012 µM)
IC50 [4]: 4.44 ng/mL (≈ 0.0109 µM)

O=C1c2cc(OC(F)(F)F)ccc2-n2c1nc1ccncc1c2=O [Example 63]
IC50 [1]: 1.16 ng/mL (≈ 0.00349 µM)
IC50 [2, 5]: 1.5 ng/mL (≈ 0.0045 µM)
IC50 [2, 6]: 1.23 ng/mL (≈ 0.00369 µM)
IC50 [3, 5]: 3.16 ng/mL (≈ 0.00948 µM)
IC50 [3, 6]: 0.946 ng/mL (≈ 0.00284 µM)
IC50 [4]: 1.97 ng/mL (≈ 0.0059 µM)
effectiveness in treating/reducing malaria parasites as shown in Table 1 (Plasmodium falciparum): most effective

O=C1c2cc(Br)ccc2-n2c1nc1ccncc1c2=O [Example 39]
IC50 [1]: 46 ng/mL (≈ 0.14 µM)
IC50 [2, 5]: 1.88 ng/mL (≈ 0.00573 µM)
IC50 [2, 6]: 1.87 ng/mL (≈ 0.0057 µM)
IC50 [3, 5]: 3.57 ng/mL (≈ 0.0109 µM)
IC50 [3, 6]: 3.57 ng/mL (≈ 0.0109 µM)
IC50 [4]: 4.2 ng/mL (≈ 0.0128 µM)

O=C1c2cc(F)ccc2-n2c1nc1ncccc1c2=O [Example 17]
IC50 [1]: 4.21 ng/mL (≈ 0.0157 µM)
IC50 [2, 5]: 0.84 ng/mL (≈ 0.00314 µM)
IC50 [2, 6]: 2.12 ng/mL (≈ 0.00795 µM)
IC50 [3, 5]: 1.53 ng/mL (≈ 0.00573 µM)
IC50 [3, 6]: 4.93 ng/mL (≈ 0.0184 µM)
IC50 [4]: 9.93 ng/mL (≈ 0.0372 µM)
IC50 (WR75-TM9) [4]: 8.002 ng/mL (≈ 0.0299 µM)

CN(CCO)c1ccc2c(=O)n3c(nc2c1)C(=O)c1cc(F)ccc1-3 [Example 68]
IC50 [1]: 3.73 ng/mL (≈ 0.011 µM)
IC50 [2, 5]: 3.86 ng/mL (≈ 0.0114 µM)
IC50 [3, 5]: 7.86 ng/mL (≈ 0.0232 µM)
IC50 [4]: 5.47 ng/mL (≈ 0.0161 µM)

CCc1ccc2c(c1)C(=O)c1nc3ccncc3c(=O)n1-2 [Example 83]
IC50 [1]: 12.9 ng/mL (≈ 0.0464 µM)
IC50 [2, 5]: 1.8 ng/mL (≈ 0.00649 µM)
IC50 [2, 6]: 7.19 ng/mL (≈ 0.0259 µM)
IC50 [3, 5]: 3.11 ng/mL (≈ 0.0112 µM)
IC50 [3, 6]: 15.1 ng/mL (≈ 0.0546 µM)
IC50 [4]: 25.7 ng/mL (≈ 0.0927 µM)

CN1CCN(c2ccc3c(=O)n4c(nc3c2)C(=O)c2cc(Cl)ccc2-4)CC1 [Example 58]
IC50 [1]: 8.1 ng/mL (≈ 0.0213 µM)
IC50 [2, 5]: 2.73 ng/mL (≈ 0.00717 µM)
IC50 [3, 5]: 4.52 ng/mL (≈ 0.0119 µM)
IC50 [4]: 17.3 ng/mL (≈ 0.0454 µM)

O=C1c2cc(OC(F)(F)F)ccc2-n2c1nc1cc(F)ccc1c2=O [Example 78]
IC50 [1]: 1.76 ng/mL (≈ 0.00504 µM)
IC50 [2, 5]: 0.86 ng/mL (≈ 0.00246 µM)
IC50 [2, 6]: 0.935 ng/mL (≈ 0.00267 µM)
IC50 [3, 5]: 0.93 ng/mL (≈ 0.00266 µM)
IC50 [3, 6]: 1.97 ng/mL (≈ 0.00561 µM)
IC50 [4]: 3.3 ng/mL (≈ 0.00941 µM)
effectiveness in treating/reducing malaria parasites as shown in Table 1 (Plasmodium falciparum): most effective

CN(CCO)c1ccc2c(=O)n3c(nc2c1)C(=O)c1cc(Cl)ccc1-3 [Example 46]
IC50 [1]: 24.4 ng/mL (≈ 0.0686 µM)
IC50 [2, 5]: 6.32 ng/mL (≈ 0.0178 µM)
IC50 [2, 6]: 23 ng/mL (≈ 0.0646 µM)
IC50 [3, 5]: 7.61 ng/mL (≈ 0.0214 µM)
IC50 [3, 6]: 42.6 ng/mL (≈ 0.12 µM)
IC50 [4]: 66.4 ng/mL (≈ 0.187 µM)

O=C1c2cc(C3CCCCC3)ccc2-n2c1nc1ccncc1c2=O [Example 74]
IC50 [1]: 42.5 ng/mL (≈ 0.128 µM)
IC50 [2, 5]: 3.52 ng/mL (≈ 0.0106 µM)
IC50 [2, 6]: 59.8 ng/mL (≈ 0.181 µM)
IC50 [3, 5]: 2.19 ng/mL (≈ 0.00661 µM)
IC50 [3, 6]: 79.6 ng/mL (≈ 0.24 µM)
IC50 [4]: 127 ng/mL (≈ 0.384 µM)

N#CC(C#N)=c1c2cc(F)ccc2n2c(=O)c3ccccc3nc12 [Example 57]
IC50 [1]: 62.2 ng/mL (≈ 0.198 µM)
IC50 [2, 5]: 10.6 ng/mL (≈ 0.0337 µM)
IC50 [2, 6]: 28.9 ng/mL (≈ 0.0921 µM)
IC50 [3, 5]: 20.3 ng/mL (≈ 0.0647 µM)
IC50 [3, 6]: 46.5 ng/mL (≈ 0.148 µM)
IC50 [4]: 82.6 ng/mL (≈ 0.263 µM)

O=C1c2cc(F)ccc2-n2c1nc1ccccc1c2=O [Example 91]
IC50 [2, 5]: 1.8 ng/mL (≈ 0.00676 µM)
IC50 [2, 6]: 5.52 ng/mL (≈ 0.0207 µM)
IC50 (W-2) [2, 6]: 4.977 ng/mL (≈ 0.0187 µM)
IC50 [3, 5]: 0.24 ng/mL (≈ 0.000901 µM)
IC50 [3, 6]: 9.06 ng/mL (≈ 0.034 µM)
IC50 (D-6) [3, 6]: 10.137 ng/mL (≈ 0.0381 µM)
IC50 (WR75-TM9) [4]: 9.941 ng/mL (≈ 0.0373 µM)

COC(OC)c1ccc2c(c1)C(=O)c1nc3ccncc3c(=O)n1-2 [Example 70]
IC50 [1]: 11 ng/mL (≈ 0.034 µM)
IC50 [2, 5]: 8.69 ng/mL (≈ 0.0269 µM)
IC50 [2, 6]: 6.1 ng/mL (≈ 0.0189 µM)
IC50 [3, 5]: 13.2 ng/mL (≈ 0.0409 µM)
IC50 [4]: 24.4 ng/mL (≈ 0.0754 µM)

O=C1c2cc(Cl)ccc2-n2c1nc1ncccc1c2=O [Example 21]
IC50 [1]: 2.3 ng/mL (≈ 0.00811 µM)
IC50 [2, 5]: 0.43 ng/mL (≈ 0.00152 µM)
IC50 [2, 6]: 1.28 ng/mL (≈ 0.00451 µM)
IC50 [3, 5]: 0.93 ng/mL (≈ 0.00328 µM)
IC50 [3, 6]: 0.926 ng/mL (≈ 0.00326 µM)
effectiveness in treating/reducing malaria parasites as shown in Table 1 (Plasmodium falciparum): most effective

COC(c1ccc2c(c1)C(=O)c1nc3ccncc3c(=O)n1-2)C(C)C (stereo not shown) [Example 73]
IC50 [1]: 4.46 ng/mL (≈ 0.0133 µM)
IC50 [2, 5]: 3.75 ng/mL (≈ 0.0112 µM)
IC50 [2, 6]: 2.85 ng/mL (≈ 0.00851 µM)
IC50 [3, 5]: 5.4 ng/mL (≈ 0.0161 µM)
IC50 [3, 6]: 4.89 ng/mL (≈ 0.0146 µM)
IC50 [4]: 10.5 ng/mL (≈ 0.0313 µM)

Cc1ncc2c(=O)n3c(nc2n1)C(=O)c1cc(Cl)ccc1-3 [Example 55]
IC50 [1]: 5.48 ng/mL (≈ 0.0184 µM)
IC50 [2, 5]: 2.1 ng/mL (≈ 0.00703 µM)
IC50 [2, 6]: 2.3 ng/mL (≈ 0.00771 µM)
IC50 [3, 5]: 7.2 ng/mL (≈ 0.0241 µM)
IC50 [3, 6]: 11.2 ng/mL (≈ 0.0376 µM)
IC50 [4]: 14.2 ng/mL (≈ 0.0476 µM)

O=C1c2cc(F)ccc2-n2c1nc1cc(F)ccc1c2=O [Example 12]
IC50 [1]: 9.74 ng/mL (≈ 0.0343 µM)
IC50 (TM90C2B) [1]: 16.914 ng/mL and 11.113 ng/mL
IC50 [2, 5]: 1.6 ng/mL (≈ 0.00563 µM)
IC50 [2, 6]: 5.27 ng/mL (≈ 0.0186 µM)
IC50 (W-2) [2, 6]: 5.787 ng/mL and 6.539 ng/mL
IC50 [3, 5]: 4.9 ng/mL (≈ 0.0172 µM)
IC50 [3, 6]: 8.54 ng/mL (≈ 0.03 µM)
IC50 (D-6) [3, 6]: 14.239 ng/mL and 11.005 ng/mL
IC50 [4]: 12 ng/mL (≈ 0.042 µM)
IC50 (WR75-TM9) [4]: 16.249 ng/mL and 19.374 ng/mL

C=CCO/N=C/c1ccc2c(c1)C(=O)c1nc3ccncc3c(=O)n1-2 [Example 90]
IC50 [1]: 6.14 ng/mL (≈ 0.0185 µM)
IC50 [2, 5]: 3.93 ng/mL (≈ 0.0118 µM)
IC50 [2, 6]: 15.6 ng/mL (≈ 0.0469 µM)
IC50 [3, 5]: 7.59 ng/mL (≈ 0.0228 µM)
IC50 [3, 6]: 16.3 ng/mL (≈ 0.0491 µM)
IC50 [4]: 30 ng/mL (≈ 0.0904 µM)
